Experimental data from patent publication US20180133221A1, “ADMINISTRATION OF UBIQUITIN-ACTIVATING ENZYME INHIBITOR AND CHEMOTHERAPEUTIC AGENTS” (Millennium Pharmaceuticals, Inc., priority 2014, published 2018).
Read-outs that look alike come from different tables or passages of the source.

Tests used:
[1] = system: PHTX-17C colorectal carcinoma xenograft; assay type: in vivo; conditions: for Tumor Volume Day 21: in mm³ (unit assumed)
Excerpt: The PHTX-17C colorectal carcinoma xenograft model was established from a patient-derived tumor collected during surgery from a person with moderately differentiated adenocarcinoma.PHTX-17C tumor fragments (approximately 2×2×3 mm^3) were implanted into the subcutaneous space in the right dorsal flank of female nude mice (age 5-7 weeks, Balb/c Nude Mice, Shanghai SINO-British SIPPR/BK Lab Animal Ltd, Shanghai, China) using a 13-gauge trocar. When the mean tumor volume reached approximately 185 mm^3, the animals were randomized into 12 treatment groups (n=5/group).
Oxaliplatin (Jiang Su Geng Rui Pharmaceuticals, Inc.) is formulated in 0.9% saline and administered by IP injection once weekly (QW) at 7.5 or 12.5 mg/kg. The once weekly schedule is also described as every 7 days (Q7D).
(§1) Compound 1 [((1R,2R,3S,4R)-2,3-dihydroxy-4-(2-(3-(trifluoromethylthio)-phenyl)pyrazolo[1,5-a]pyrimidin-7-ylamino)cyclopentyl)methyl sulfamate] is formulated in 10-20% HPbCD in sterile water and administered intravenously (IV) or subcutaneously (SC) on a BIW (twice/week schedule; Monday and Thursday or Tuesday and Friday) for either 2-4 weeks.
(§2) Tumors were measured twice weekly using vernier calipers. Tumor volumes were calculated using the standard formula V=W^2×L/2,). When mean tumor volumes reached approximately 200 mm^3 for PHTX-24C, 220 mm^3 for PHTX-Lu132, 150 mm^3 for CTG-0256, 260 mm^3 for CTG-0486, 185 mm^3 for PHTX-17C, 260 mm^3 for CTG-0165, 150 mm^3 for PHTX-14B in the study of Compound 1 and paclitaxel, 180 mm^3 for PHTX-14B in the study of Compound 1 and docetaxel, 200 mm^3 for SKOV-3, 220 mm^3 for PHTX-02B in the study of Compound 1 and docetaxel, 250 mm^3 for PHTX-02B in the study of Compound 1 and paclitaxel, 195 mm^3 for CTG-0159, 180 mm^3 for CTG-0012 or 150 mm^3 for Calu-6, mice were randomized into groups of n=5-7/arm as described in the tables below, and injected with vehicle, Compound 1 or agents (docetaxel, paclitaxel, oxaliplatin, cisplatin or carboplatin), or the combination of Compound 1 plus one of the agents, at various doses and schedules as described in tables below. Tumor size and body weight were measured approximately twice a week for the duration of the study. Mice are euthanized when their tumor volume reached 10% of their body weight, or when the average tumor volume of a treatment or control group reached approximately 2000 mm^3. Tumor growth continued to be monitored after the dosing period in some studies. Average tumor volume is reported as a function of time for selected arms of selected studies in the Figures.
(§3) Measurements from day 0 to day 14, day 19, day 21, or day 28 are analyzed as specified in Tables below. All tumor volumes have a value of 1 added to them before log10 transformation. For each animal, the log tumor volume at day 0 is subtracted from the log tumor volume on the subsequent days. This difference vs. time is used to calculate an area under the curve (AUC) for each animal using the trapezoid rule. […] The synergy score for the combination of agents A and B is defined as
(§4) 100*(mean(AUCAB)−mean(AUCA)−mean(AUCB)+mean(AUCctl))/mean(AUCctl):
(§5) where AUCAB, AUCA, AUCB, and AUCctl are the AUC values for animals in the combination group, the A group, the B group, and the control group, respectively. The standard error of the synergy score is computed based on the variation in the AUC values among the animals. […] If the P-value is above 0.05, then the combination is considered to be additive. If the P-value is below 0.05, and the synergy score is less than zero, then the combination is considered to be synergistic.

[2] = system: CTG-0256 human ovarian xenograft; experiment: CTG-0256 xenograft model, Compound 1 and carboplatin; assay type: in vivo, Mus musculus/nu/nu mice; conditions: for Volume Tumor Day 14: in mm³ (unit assumed)
Excerpt: The CTG-0256 model of human ovarian xenograft model was established from a patient-derived tumor collected during surgery at primary site from a person with ovarian cancer (serous adenocarcinoma with resistant response to carboplatin or paclitaxel). CTG-0256 tumor fragments (approximately 2×2×3 mm^3) were implanted into the subcutaneous space in the right dorsal flank of female Mus musculus/nu/nu mice (age 6-9 weeks, Harlan Laboratories, Madison, Wis.) using a 13-gauge trocar. When the mean tumor volume reached approximately 150 mm^3, the animals were randomized into 7 treatment groups (n=7/group).
Carboplatin (Teva Pharmaceuticals) is formulated in 0.9% saline and administered by IP injection once weekly (QW) at 25, 50, 60, and 75 mg/kg. The once weekly schedule is also described as every 7 days (Q7D).
as §1, §2, §3, §4, §5

[3] = system: PHTX-14B breast xenograft; experiment: PHTX-14B xenograft model, Compound 1 and paclitaxel; assay type: in vivo, Balb/c Nude Mice; conditions: for Tumor Volume Day 28: in mm³ (unit assumed)
Experimental: (§6) Paclitaxel (Bristol-Myers Squibb Company) is formulated in 0.9% saline and administered by intravenous injection (IV) on every 4 days (Q4D) or once weekly (QW) at 10 and 20 mg/kg. […] Tumors were measured twice weekly using vernier calipers.

[4] = system: CTG-0486 human ovarian xenograft; assay type: in vivo; conditions: for Tumor Volume Day 21: in mm³ (unit assumed)
Excerpt: The CTG-0486 model of human ovarian xenograft model was established from a patient-derived tumor collected during surgery from a person with ovarian cancer (serous adenocarcinoma, metastases to the small bowel). CTG-0486 tumor fragments (approximately 2×2×3 mm^3) are implanted into the subcutaneous space in the right dorsal flank of female Mus musculus/nu/nu mice (age 6-9 weeks, Harlan Laboratories, Madison, Wis., USA) using a 13-gauge trocar needle. When the mean tumor volume reached approximately 260 mm3, the animals were randomized into 8 treatment groups (n=5/group).
[…] The once weekly schedule is also described as every 7 days (Q7D).
as §1, §2, §3, §4, §5

[5] = system: CTG-0012 human primary triple negative breast cancer model; experiment: CTG-0012 xenograft model, Compound 1 and paclitaxel; assay type: in vivo, Mus musculus/nu/nu mice; conditions: for Tumor Volume Day 21: in mm³ (unit assumed)
Experimental: as §6

NS(=O)(=O)OC[C@H]1C[C@@H](Nc2ccnc3cc(-c4cccc(SC(F)(F)F)c4)nn23)[C@H](O)[C@@H]1O [Compound 1, ((1R,2R,3S,4R)-2,3-dihydroxy-4-(2-(3-(trifluoromethylthio)phenyl)pyrazolo[1,5-a]pyrimidin-7-ylamino)cyclopentyl)methyl sulfamate]
Tumor Volume Day 21 ([1]; 20 mg/kg Compound 1 BIWx3 IV): 1875.6 | Tumor Volume Day 21 ([1]; 25 mg/kg Compound 1 BIWx3 IV): 2159.3 | Tumor Volume Day 21 ([1]; 30 mg/kg Compound 1 BIWx3 IV): 1612.7 | anti-tumor activity compared to vehicle control ([1]; single agent Compound 1 IV at 20, 25, 30 mg/kg BIW): modest anti-tumor activity | Volume Tumor Day 14 ([2]; 6.25 mg/kg Compound 1 BIWx2 IV): 1291.5 | Volume Tumor Day 14 ([2]; 15 mg/kg Compound 1 BIWx2 IV): 1638.6 | Volume Tumor Day 14 ([2]; 20 mg/kg Compound 1 BIWx2 IV): 1406.7 | anti-tumor activity compared to vehicle control ([2]; single agent Compound 1 IV at 20, 15, 6.25 mg/kg BIW): modest to weak anti-tumor activity | Tumor Volume Day 28 ([3]; 10 mg/kg Compound 1 BIWx4 SC): 690.0 | Tumor Volume Day 28 ([3]; 20 mg/kg Compound 1 BIWx4 SC): 480.6 | Tumor Volume Day 28 ([3]; 30 mg/kg Compound 1 BIWx4 SC): 165.1 | anti-tumor activity ([3]; single agent Compound 1 SC at 30 mg/kg BIW for 4 weeks): strong anti-tumor activity | anti-tumor activity compared to vehicle control ([3]; single agent Compound 1 SC at 10, and 20 mg/kg BIW for 4 weeks): modest anti-tumor activity | Tumor Volume Day 21 ([4]; 6.25 mg/kg Compound 1 BIWx3 SC): 476.9 | Tumor Volume Day 21 ([4]; 15 mg/kg Compound 1 BIWx3 SC): 131.9 | Tumor Volume Day 21 ([4]; 20 mg/kg Compound 1 BIWx3 SC): 92.7 | Tumor Volume Day 21 ([4]; 25 mg/kg Compound 1 BIWx3 SC): 151.7 | tolerability ([4]; 20 and 25 mg/kg doses of Compound 1, SC BIW): not tolerated | anti-tumor activity compared to vehicle control ([4]; single agent Compound 1 SC at 6.25, 15, 20 and 25 mg/kg BIW for 3 weeks): modest to strong anti-tumor activity | Tumor Volume Day 21 ([5]; 6.25 mg/kg Compound 1 BIWx3 IV): 815 | Tumor Volume Day 21 ([5]; 15 mg/kg Compound 1 BIWx3 IV): 185 | Tumor Volume Day 21 ([5]; 20 mg/kg Compound 1 BIWx3 IV): 47.4 | anti-tumor activity compared to vehicle control ([5]; single agent Compound 1 IV at 6.25, 15, and 20 mg/kg BIW for 3 weeks): modest to strong anti-tumor activity
